Patent publication US20220031652A1, “USE OF AN ORGANOMETALLIC COMPOUND AS A DNA-DEMETHYLATING AGENT” (UNIVERSITE DE LORRAINE, priority 2018, published 2022)

Test system: MDA-MB231, T47D, T47D R+ doxo, U251 and U87 cells
Assay: Crystal violet proliferation test at 2 μM, 48 h or 72 h
Type: cell-based
Procedure: Each cell line is seeded in 96-well plates (100 μL medium/well) according to the following conditions:
After 48 h or 72 h of treatment, the medium of each well is removed then a washing is carried out with 100 μL of PBS.
The cells are then fixed with 100 μL of paraformaldehyde 4% for 20 minutes, followed by two washings with 500 μL of PBS.
The percentage of cells adhered is highlighted by a crystal violet coloration.
100 μL of crystal violet at 0.1% (1/5 dilution in H2O of the stock solution: 0.5% crystal violet 2% filtered ethanol 0.22 μM) is added in each well.
After 30 minutes of incubation at ambient temperature, the wells are rinsed 3 times with distilled water, then correctly dried by patting on a sheet of absorbent paper.
100 μL of 10% acetic acid is then added to each well.
The plate is stirred until total solubilisation of the crystal violet crystals (around 10 minutes).

## [Ru+2].c1ccc(-c2cc(-c3ccccn3)nc(-c3ccccn3)c2)cc1.c1ccc(-c2cc(-c3ccccn3)nc(-c3ccccn3)c2)cc1 [Ru]
  inhibition of the proliferation (crystal violet): does not lead to any inhibition of the proliferation
